Key:
[1] = cited from earlier work
VEGF-A = conditions: wet AMD patients; cited from earlier work
C5 = target: T1, C5 (Homo sapiens, UniProt P01031); conditions: intravitreal injections, Phase 2/3 GATHER1; cited from earlier work
T1 construct: host or cells: endogenous C5 of study patients

HUVECs = experiment: H2O2-induced tubule formation in HUVECs co-cultured with ARPE-19 cells (Calcein AM); format: cell-based, human; conditions: 200 μM H2O2; 10 μg/mL NPs or 5 μg/mL bevacizumab; vs positive control
Protocol: Under oxidative stress induced by 200 μM H2O2, ARPE-19 cells were co-cultured with human umbilical vein endothelial cells (HUVECs) to investigate the influence of H2O2 and drug-loaded PDA NPs on the development of the three-dimensional capillary structure. Exposure to H2O2 induced secretion of VEGF and tubule formation. Cells were then incubated with 5 μg/mL native bevacizumab control or 10 μg/mL NPs with and without anti-VEGF. […] The reaction of PDA NPs with H2O2 also simultaneously degraded (FIG. 6B) and triggered drug release (FIG. 7), favorable for spatiotemporal control of release at disease sites.

C3 = target: T2, C3 (Homo sapiens, UniProt P01024); conditions: intravitreal injection, Phase 2 FILLY; cited from earlier work
T2 construct: host or cells: endogenous C3 of study patients
T2 sequence (P01024 23-667 limits assumed): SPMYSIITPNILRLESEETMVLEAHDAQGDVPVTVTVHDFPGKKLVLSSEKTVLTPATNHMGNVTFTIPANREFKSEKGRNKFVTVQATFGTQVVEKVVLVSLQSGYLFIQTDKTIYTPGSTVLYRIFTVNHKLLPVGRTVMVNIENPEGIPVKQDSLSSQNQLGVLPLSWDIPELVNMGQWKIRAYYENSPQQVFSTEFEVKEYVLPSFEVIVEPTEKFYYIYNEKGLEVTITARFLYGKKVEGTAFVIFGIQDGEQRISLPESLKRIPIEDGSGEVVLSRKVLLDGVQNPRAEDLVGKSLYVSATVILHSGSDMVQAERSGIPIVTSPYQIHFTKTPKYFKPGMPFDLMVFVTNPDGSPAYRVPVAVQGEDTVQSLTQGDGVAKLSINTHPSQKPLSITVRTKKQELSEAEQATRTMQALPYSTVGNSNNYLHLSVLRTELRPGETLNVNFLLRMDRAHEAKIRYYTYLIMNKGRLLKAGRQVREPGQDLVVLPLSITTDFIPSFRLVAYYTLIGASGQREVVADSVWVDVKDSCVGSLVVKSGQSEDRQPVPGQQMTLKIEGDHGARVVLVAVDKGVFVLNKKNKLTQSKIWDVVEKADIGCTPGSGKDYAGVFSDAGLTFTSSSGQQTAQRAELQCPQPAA
T2 sequence (P01024 672-1663 partner limits assumed): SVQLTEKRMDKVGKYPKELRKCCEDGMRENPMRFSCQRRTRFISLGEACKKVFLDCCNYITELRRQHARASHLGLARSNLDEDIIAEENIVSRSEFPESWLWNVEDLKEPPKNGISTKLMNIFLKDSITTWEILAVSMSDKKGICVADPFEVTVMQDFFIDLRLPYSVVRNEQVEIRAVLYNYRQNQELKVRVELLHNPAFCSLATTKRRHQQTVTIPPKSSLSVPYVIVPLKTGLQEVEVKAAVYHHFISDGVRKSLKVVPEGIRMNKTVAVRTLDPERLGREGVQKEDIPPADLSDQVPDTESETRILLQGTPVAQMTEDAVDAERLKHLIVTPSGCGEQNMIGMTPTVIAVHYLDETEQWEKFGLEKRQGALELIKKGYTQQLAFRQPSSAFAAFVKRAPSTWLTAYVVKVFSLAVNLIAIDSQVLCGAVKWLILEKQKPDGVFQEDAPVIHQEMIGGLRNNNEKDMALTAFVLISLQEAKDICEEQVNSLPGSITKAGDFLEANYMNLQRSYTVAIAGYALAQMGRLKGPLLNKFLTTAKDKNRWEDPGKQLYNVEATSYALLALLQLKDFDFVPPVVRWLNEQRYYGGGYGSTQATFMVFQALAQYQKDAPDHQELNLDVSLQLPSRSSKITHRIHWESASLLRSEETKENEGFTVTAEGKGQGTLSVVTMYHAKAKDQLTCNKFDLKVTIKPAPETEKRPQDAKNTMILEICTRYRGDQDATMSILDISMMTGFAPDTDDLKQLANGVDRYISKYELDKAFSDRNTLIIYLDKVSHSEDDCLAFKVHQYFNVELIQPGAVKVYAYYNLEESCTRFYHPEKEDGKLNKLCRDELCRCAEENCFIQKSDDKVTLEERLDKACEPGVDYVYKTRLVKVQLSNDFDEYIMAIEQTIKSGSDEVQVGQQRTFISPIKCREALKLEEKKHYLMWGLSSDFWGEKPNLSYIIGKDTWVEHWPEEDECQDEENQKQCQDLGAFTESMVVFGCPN

T1 sequence (P01031 19-673 limits assumed): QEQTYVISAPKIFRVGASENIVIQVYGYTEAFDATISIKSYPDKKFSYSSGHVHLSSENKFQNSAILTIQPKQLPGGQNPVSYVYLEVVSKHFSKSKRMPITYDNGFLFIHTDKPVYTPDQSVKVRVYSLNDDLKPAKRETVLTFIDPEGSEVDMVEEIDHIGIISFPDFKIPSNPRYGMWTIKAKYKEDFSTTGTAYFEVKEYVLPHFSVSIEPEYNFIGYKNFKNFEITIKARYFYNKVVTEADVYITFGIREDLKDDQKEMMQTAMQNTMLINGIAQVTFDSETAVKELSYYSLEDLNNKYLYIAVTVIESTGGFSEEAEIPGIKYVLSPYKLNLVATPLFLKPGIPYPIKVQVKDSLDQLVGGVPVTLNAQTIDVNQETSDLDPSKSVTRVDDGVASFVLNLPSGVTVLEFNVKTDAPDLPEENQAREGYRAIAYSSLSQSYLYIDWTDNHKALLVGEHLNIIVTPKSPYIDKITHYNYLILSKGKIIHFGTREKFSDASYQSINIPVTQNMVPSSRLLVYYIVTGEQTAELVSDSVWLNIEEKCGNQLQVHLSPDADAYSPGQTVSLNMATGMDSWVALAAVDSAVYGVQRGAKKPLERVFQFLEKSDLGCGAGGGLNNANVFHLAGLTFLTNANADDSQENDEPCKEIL
T1 sequence (P01031 678-1676 limits assumed): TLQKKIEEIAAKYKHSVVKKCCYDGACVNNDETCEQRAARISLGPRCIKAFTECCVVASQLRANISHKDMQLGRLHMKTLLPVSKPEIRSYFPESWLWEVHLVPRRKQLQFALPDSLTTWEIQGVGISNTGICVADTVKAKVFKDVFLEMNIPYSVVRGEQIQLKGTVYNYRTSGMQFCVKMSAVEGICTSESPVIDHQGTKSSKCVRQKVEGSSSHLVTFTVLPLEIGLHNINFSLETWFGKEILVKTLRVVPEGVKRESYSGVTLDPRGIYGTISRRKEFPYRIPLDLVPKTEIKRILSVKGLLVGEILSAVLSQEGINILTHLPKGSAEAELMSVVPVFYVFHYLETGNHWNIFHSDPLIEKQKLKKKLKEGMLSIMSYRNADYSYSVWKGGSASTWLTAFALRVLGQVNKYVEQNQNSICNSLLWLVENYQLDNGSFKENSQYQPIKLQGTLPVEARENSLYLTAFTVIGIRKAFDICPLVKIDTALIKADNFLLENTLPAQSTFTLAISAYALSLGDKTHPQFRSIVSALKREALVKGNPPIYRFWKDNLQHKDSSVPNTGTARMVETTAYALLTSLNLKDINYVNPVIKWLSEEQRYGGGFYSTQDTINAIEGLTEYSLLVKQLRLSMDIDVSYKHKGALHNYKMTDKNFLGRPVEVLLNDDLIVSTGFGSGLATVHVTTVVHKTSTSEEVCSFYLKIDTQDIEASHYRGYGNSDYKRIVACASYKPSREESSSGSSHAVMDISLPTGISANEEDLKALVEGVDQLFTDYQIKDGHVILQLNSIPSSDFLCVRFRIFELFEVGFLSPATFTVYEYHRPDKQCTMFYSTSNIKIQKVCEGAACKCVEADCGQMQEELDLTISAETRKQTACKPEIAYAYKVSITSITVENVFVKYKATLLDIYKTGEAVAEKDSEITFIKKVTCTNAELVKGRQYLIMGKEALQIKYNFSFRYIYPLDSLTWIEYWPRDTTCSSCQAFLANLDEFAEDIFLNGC
VEGF-A, sequence (P15692 207-311 limits assumed): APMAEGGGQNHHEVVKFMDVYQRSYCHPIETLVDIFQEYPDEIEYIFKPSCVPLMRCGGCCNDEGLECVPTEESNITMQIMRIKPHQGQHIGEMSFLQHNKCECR

Compound: C=CC1=C(C)c2cc3[n-]c(cc4[n-]c(cc5nc(cc1n2)C(C)=C5C=C)c(C)c4CCC(=O)O)c(CCC(=O)O)c3C.[Fe+2] [Heme]
- aqueous solubility [1]: insoluble in aqueous solution

Compound: RAN: monoclonal antibody fragment with strong affinity to VEGF-A
- patients with improved vision (VEGF-A): 29%-40%

Compound: avacincaptad pegol
- GA growth rate (C5): significantly reduced GA growth rate

Compound: bevacizumab: a monoclonal antibody that inhibits VEGF-A
- tubule formation in HUVECs (HUVECs): significant decrease

Compound: pegcetacoplan
- GA growth rate (C3): significantly reduced GA growth rate

— patent US20250009755A1, “COMPOSITIONS AND METHODS FOR THE TREATMENT OF OCULAR DISEASES AND INJURIES” (Ohio State Innovation Foundation, priority 2021, published 2025)
